# From patent US4183931A, “2-Ketoalkyl-4(3H)-quinazolinones” (Research Corporation, priority 1977, dated 1980)
# Columns and labels:
# [1] = NINCDS rotorod ataxia test (minimal neurotoxicity); format: in vivo, mice; conditions: mouse, in vivo, ip; secondary evaluation, at time of peak effect
# Method: (§1) 1. Neurological Activity Tests. The biological testing program is designed to evaluate the following four aspects of drug action: (1) the existence and specificity of anticonvulsant activity; (2) the toxicity, particularly to the central nervous system; and, if the results of (1) and (2) are favorable, (3) the potency and protective index, a comparison between toxic and effective dose and (4) the time course of activity. Compounds were evaluated for anticonvulsant activity in two seizure models, the maximal electroshock seizure (MES) test and the subcutaneous pentylenetetrazol (Metrazol) seizure threshold (scMet) test.
# Central nervous system toxicity was evaluated in the rotorod ataxia test. This test is designed to detect minimal neurotoxicity. The animal is placed on a 1-inch diameter knurled plastic rod rotating at 6 rpm. Normal mice can remain indefinitely on a rod rotating at this speed. Neurological deficit is defined as the failure of the animal to remain on the rod for at least 1 minute. This test has a clear end-point, is quantifiable and correlates well with the clinical assessment of minimal toxicity.
# (§2) Specific anticonvulsant evaluations performed by NINCDS using MES, scMet and Rotorod assays are presented in Tables III & IV for fourteen new compounds as well as several known compounds. Table III centers attention on 2-substituted-3-o-tolyl-4-(3H)-quinazolinones while Table IV includes the findings for various other 2,3-disubstituted-4(3H)-quinazolinones. As described earlier, the MES, scMet and Rotorod tests were performed one-half hour and four hours after administration of each compound. The tables identify the dosage level that elicited a positive result, such as protection against MES and scMet induced seizures, or loss of balance on the rotorod.
# In the Secondary Evaluation, median effective doses (ED50) are determined in the MES, scMet and Rotorod assays using the procedures defined in Pharmacology, 95, 99-113 (1949). In addition, each compound's anticonvulsant activity and neurotoxicity over time are determined by measuring the effect of an intraperitoneally administered estimated median effective dose on maximal electroshock seizures and rotorod performance at intervals of 1/2, 1, 2, 3, 4, 6 and 8 hours.
# Separate groups of animals are used for each time period. The times of peak toxic and anticonvulsant effect are taken from the resulting graph of percent of animals responding vs. time, and the determinations of median effective doses are performed at those times.
# [2] = NINCDS primary evaluation, overall classification; format: in vivo, mice; conditions: mouse, in vivo
# Method: as §1, §2
# [3] = NPP maximal electroshock seizure (MES) protection; format: in vivo, white male mice of the Carworth Farm Strain CF-1; conditions: Mus musculus, ip; conducted at 30 mg/kg i.p.
smiles,measurement,setting,value
"O=C(Cc1nc2ccccc2c(=O)n1-c1ccccc1Cl)c1ccncc1 [IVd, 2-[2-Oxo-2-(4-pyridyl)ethyl]-3-o-chlorophenyl-4(3H)-quinazolinone]",TD50,[1],137 mg/kg
same,dosage for useful anticonvulsant activity relative to dosage for sedative-hypnotic activity,[2],fourfold lower
same,responders at 30 mg/kg,[3],50%
